Laboratory results from article PMC8085067, “The dimer-monomer equilibrium of SARS-CoV-2 main protease is affected by small molecule inhibitors” (Scientific Reports, 2021).
“Also recorded” adds a separate entry of the source.

Target: SARS-CoV-2 M^pro (Severe acute respiratory syndrome coronavirus 2, UniProt P0DTD1)
Assay: M^pro activity assay and inhibition (fluorogenic substrate)
Type: biochemical
Details: for inhibition of M^pro catalytic activity (in words) / slope m of the fluorescence inhibition curve: inhibitor 30 μM; for inhibition of M^pro catalytic activity (in words): fluorescence assay; for slope m of the fluorescence inhibition curve: ≈0.2 μM M^pro, 40 μM substrate, 30 °C, 20 min preincubation, linear fit up to 30 min

Row | SMILES | inhibition of M^pro catalytic activity (in words) | slope m of the fluorescence inhibition curve | Hill slope n (Hill equation fit of percent inhibition) | IC50 (Hill equation fit of percent inhibition vs inhibitor concentration) [µM]
1 | OCCN(CCOc1c(F)c(F)c(-c2nc(-c3ccncc3)no2)c(F)c1F)CCOc1c(F)c(F)c(-c2nc(-c3ccncc3)no2)c(F)c1F [Inhibitor 3] | week | 23±3 RFU/min |  | 
2 | Fc1c(F)c(N2CCOCCOCCOCCOCCOCC2)c(F)c(F)c1-c1nc(-c2ccccc2)no1 [Inhibitor 4, 16-(2,3,5,6-tetrafluoro-4-(3-phenyl-1,2,4-oxadiazol-5-yl)phenyl)-1,4,7,10,13-pentaoxa-16-azacyclooctadecane] | irreversible inactivation of the enzyme; also recorded: most effective among the seven inhibitors | 0±6 RFU/min and ≈ 0 RFU/min |  | 
3 | CCNC(=O)c1noc(-c2c(F)c(F)c(NCCN(CCNc3c(F)c(F)c(-c4nc(C(=O)NCC)no4)c(F)c3F)CCNc3c(F)c(F)c(-c4nc(C(=O)NCC)no4)c(F)c3F)c(F)c2F)n1 [Inhibitor 7, 5,5’,5”-(((nitrilotris(ethane-2,1-diyl))tris(azanediyl))tris(2,3,5,6-tetrafluorobenzene-4,1-diyl))tris(N-ethyl-1,2,4-oxadiazole-3-carboxamide)] | irreversible inactivation of the enzyme; also recorded: promising inhibition effect | 1±3 RFU/min and ≈ 1 RFU/min | 3±1 | 15 ± 2
